The source of these data is ChEMBL document CHEMBL1126212, “A peptide-acridine conjugate with ribonucleolytic activity” (1992).

For the assay, the system named is Escherichia coli. Briefly: Evaluated for the ribosomal RNA cleavage using Gel-permeation analysis as difference in retention time. The assay is classed as functional.

Structures are written as SMILES. Peptide text beside a SMILES is read from it. * marks the point of attachment. Acridine9carbonyl = O=C(c1c2ccccc2nc2ccccc12)*

On to `Cc1ccc2nc3ccccc3c(C=O)c2c1`, for which the “Difference in retention time” value is 0.3 min.
As for `N[C@@H](Cc1c[nH]cn1)C(=O)N1CCC[C@H]1C(=O)N[C@@H](Cc1c[nH]cn1)C(=O)N[C@@H](CCCCNC(=O)c1c2ccccc2nc2ccccc12)C(=O)O` (H-HPHK(Acridine9carbonyl)-OH), the figure is 3.4 min; as for `NCCCC[C@H](NC(=O)[C@H](Cc1c[nH]cn1)NC(=O)[C@@H]1CCCN1C(=O)[C@@H](N)Cc1c[nH]cn1)C(N)=O` (H-HPHK-NH2), 0.2 min.
